Measurements from ChEMBL document CHEMBL1275440, “In vitro activity of telavancin against resistant gram-positive bacteria” (2008).
Converted amounts (≈) assume the structure as drawn. The source made the active and inactive calls. No cut-off for these calls is given here.

Legend:
Assay type in all cases: functional
Staphylococcus aureus [1] = test: Antibacterial activity against methicillin resistant Staphylococcus aureus MED 2028 osteomyelitis isolate assessed as bacterial count at 2 ug/ml after 24 hrs by time-kill assay
Staphylococcus aureus [2] = test: Antibacterial activity against methicillin resistant Staphylococcus aureus MED 2028 osteomyelitis isolate assessed as bacterial count at 2 ug/ml after 4 hrs by time-kill assay
Staphylococcus aureus [3] = test: Antibacterial activity against methicillin resistant Staphylococcus aureus MED 2028 osteomyelitis isolate assessed as bacterial count at 2 ug/ml after 2 hrs by time-kill assay
Staphylococcus aureus [4] = test: Antibacterial activity against methicillin resistant Staphylococcus aureus MED 2028 osteomyelitis isolate assessed as bacterial count at 1 ug/ml after 4 hrs by time-kill assay
Streptococcus pyogenes [5] = test: Antibacterial activity against Streptococcus pyogenes MED 2040 by broth microdilution method
Enterococcus faecalis [6] = test: Antibacterial activity against Enterococcus faecalis ATCC 51575 by broth microdilution method
Streptococcus agalactiae [7] = test: Antibacterial activity against Streptococcus agalactiae MED 2038 by broth microdilution method
[8] = test system: Staphylococcus epidermidis; test: Antibacterial activity against methicillin resistant Staphylococcus epidermidis ATCC 35984 by broth microdilution method
Staphylococcus aureus [9] = test: Antibacterial activity against methicillin resistant Staphylococcus aureus MED 2028 osteomyelitis isolate by broth microdilution method
Streptococcus oralis = test: Antibacterial activity against Streptococcus oralis clinical isolate by broth microdilution method
[10] = test system: Streptococcus intermedius; test: Antibacterial activity against Streptococcus intermedius clinical isolate by broth microdilution method
Streptococcus mitis = test: Antibacterial activity against Streptococcus mitis clinical isolate by broth microdilution method
Streptococcus pneumoniae [11] = test: Antibacterial activity against penicillin resistant Streptococcus pneumoniae clinical isolate by broth microdilution method
Streptococcus pneumoniae [12] = test: Antibacterial activity against penicillin intermediate Streptococcus pneumoniae clinical isolate by broth microdilution method
[13] = Antibacterial activity against methicillin resistant coagulase-negative Staphylococcus hominis subsp. novobiosepticus clinical isolate by broth microdilution method
Streptococcus pyogenes [14] = test: (§1) Antibacterial activity against Streptococcus pyogenes MED 2040 assessed as bacterial count at […] after 2 hrs by time-kill assay
Streptococcus pyogenes [15] = test: Antibacterial activity against Streptococcus pyogenes MED 2040 assessed as bacterial count at 2 ug/ml after 4 hrs by time-kill assay
Streptococcus pyogenes [16] = test: Antibacterial activity against Streptococcus pyogenes MED 2040 assessed as bacterial count at 8 ug/ml after 24 hrs by time-kill assay
Enterococcus faecalis [17] = test: Antibacterial activity against Enterococcus faecalis ATCC 51575 assessed as bacterial count at 2 ug/ml after 8 hrs by time-kill assay
Enterococcus faecalis [18] = test: Antibacterial activity against Enterococcus faecalis ATCC 51575 assessed as bacterial count at 4 ug/ml after 2 hrs by time-kill assay
Enterococcus faecalis [19] = test: Antibacterial activity against Enterococcus faecalis ATCC 51575 assessed as bacterial count at 4 ug/ml after 4 hrs by time-kill assay
Streptococcus pyogenes [20] = test: Antibacterial activity against Streptococcus pyogenes MED 2040 assessed as bacterial count at […] after 8 hrs by time-kill assay
Streptococcus pyogenes [21] = test: as §1; remark: listed apart in the source
Streptococcus agalactiae [22] = test: Antibacterial activity against Streptococcus agalactiae MED 2038 assessed as bacterial count at 8 ug/ml after 2 hrs by time-kill assay
Streptococcus agalactiae [23] = test: Antibacterial activity against Streptococcus agalactiae MED 2038 assessed as bacterial count at 0.5 ug/ml after 4 hrs by time-kill assay
Streptococcus agalactiae [24] = test: Antibacterial activity against Streptococcus agalactiae MED 2038 assessed as bacterial count at […] after 24 hrs by time-kill assay
Streptococcus agalactiae [25] = test: (§2) Antibacterial activity against Streptococcus agalactiae MED 2038 assessed as bacterial count at […] after 8 hrs by time-kill assay
Streptococcus agalactiae [26] = test: as §2; remark: listed apart in the source
Streptococcus pneumoniae [27] = test: Antibacterial activity against multidrug resistant Streptococcus pneumoniae MED 1090 assessed as bacterial count at 2 ug/ml after 8 hrs by time-kill assay
Streptococcus pneumoniae [28] = test: Antibacterial activity against multidrug resistant Streptococcus pneumoniae MED 1090 assessed as bacterial count at 0.06 ug/ml after 2 hrs by time-kill assay
Streptococcus pneumoniae [29] = test: Antibacterial activity against multidrug resistant Streptococcus pneumoniae MED 1090 assessed as bacterial count at 0.03 ug/ml after 24 hrs by time-kill assay
[30] = test system: Staphylococcus epidermidis; test: Antibacterial activity against methicillin resistant Staphylococcus epidermidis ATCC 35984 assessed as bacterial count at 8 ug/ml after 24 hrs by time-kill assay
[31] = test system: Staphylococcus epidermidis; test: Antibacterial activity against methicillin resistant Staphylococcus epidermidis ATCC 35984 assessed as bacterial count at 8 ug/ml after 8 hrs by time-kill assay
[32] = test system: Staphylococcus epidermidis; test: Antibacterial activity against methicillin resistant Staphylococcus epidermidis ATCC 35984 assessed as bacterial count at 4 ug/ml after 4 hrs by time-kill assay
[33] = test system: Staphylococcus epidermidis; test: Antibacterial activity against methicillin resistant Staphylococcus epidermidis ATCC 35984 assessed as bacterial count at 4 ug/ml after 2 hrs by time-kill assay
[34] = test system: Staphylococcus epidermidis; test: Antibacterial activity against methicillin resistant Staphylococcus epidermidis ATCC 35984 assessed as bacterial count at 2 ug/ml after 24 hrs by time-kill assay
Staphylococcus aureus [35] = test: Antibacterial activity against methicillin resistant Staphylococcus aureus MED 1805 bloodstream isolate assessed as bacterial count at 16 ug/ml after 8 hrs by time-kill assay
Staphylococcus aureus [36] = test: Antibacterial activity against methicillin resistant Staphylococcus aureus MED 1805 bloodstream isolate assessed as bacterial count at 16 ug/ml after 4 hrs by time-kill assay
Staphylococcus aureus [37] = test: Antibacterial activity against methicillin resistant Staphylococcus aureus MED 1805 bloodstream isolate assessed as bacterial count at 16 ug/ml after 2 hrs by time-kill assay
Staphylococcus aureus [38] = test: Antibacterial activity against methicillin resistant Staphylococcus aureus MED 1805 bloodstream isolate assessed as bacterial count at 4 ug/ml after 8 hrs by time-kill assay
Staphylococcus aureus [39] = test: Antibacterial activity against methicillin resistant Staphylococcus aureus MED 1805 bloodstream isolate assessed as bacterial count at 2 ug/ml after 4 hrs by time-kill assay
Staphylococcus aureus [40] = test: Antibacterial activity against methicillin resistant Staphylococcus aureus MED 1805 bloodstream isolate assessed as bacterial count at 2 ug/ml after 2 hrs by time-kill assay
Staphylococcus aureus [41] = test: Antibacterial activity against methicillin resistant Staphylococcus aureus MED 2028 osteomyelitis isolate assessed as bacterial count at 8 ug/ml after 8 hrs by time-kill assay
Staphylococcus aureus [42] = test: Antibacterial activity against methicillin resistant Staphylococcus aureus MED 2028 osteomyelitis isolate assessed as bacterial count at 8 ug/ml after 4 hrs by time-kill assay
Staphylococcus aureus [43] = test: Antibacterial activity against methicillin resistant Staphylococcus aureus MED 2028 osteomyelitis isolate assessed as bacterial count at 4 ug/ml after 24 hrs by time-kill assay

## CCCCCCCCCCNCCN[C@@]1(C)C[C@H](O[C@H]2[C@H](Oc3c4cc5cc3Oc3ccc(cc3Cl)[C@@H](O)[C@@H](NC(=O)[C@@H](CC(C)C)NC)C(=O)N[C@@H](CC(N)=O)C(=O)N[C@H]5C(=O)N[C@H]3C(=O)N[C@H](C(=O)N[C@H](C(=O)O)c5cc(O)c(CNCP(=O)(O)O)c(O)c5-c5cc3ccc5O)[C@H](O)c3ccc(c(Cl)c3)O4)O[C@H](CO)[C@@H](O)[C@@H]2O)O[C@@H](C)[C@H]1O [TELAVANCIN]
Staphylococcus aureus [1]
  log10CFU/ml: 3.4
Staphylococcus aureus [2]
  log10CFU/ml: 1.6
Staphylococcus aureus [3]
  log10CFU/ml: 0.6
Staphylococcus aureus [4]
  log10CFU/ml: 1.3
Streptococcus pyogenes [5]
  MIC: 0.06 µg/mL (≈ 0.0342 µM)
Enterococcus faecalis [6]
  MIC: 1 µg/mL (≈ 0.57 µM)
Streptococcus agalactiae [7]
  MIC: 0.06 µg/mL (≈ 0.0342 µM)
[8]
  MIC: 1 µg/mL (≈ 0.57 µM)
Staphylococcus aureus [9]
  MIC: 0.5 µg/mL (≈ 0.285 µM)
Streptococcus oralis
  MIC: 0.015 µg/mL (≈ 0.00854 µM)
  MIC50: inactive
  MIC90: inactive
[10]
  MIC: 0.015 µg/mL (≈ 0.00854 µM)
  MIC50: inactive
  MIC90: inactive
Streptococcus mitis
  MIC: 0.015 µg/mL (≈ 0.00854 µM)
  MIC50: inactive
  MIC90: inactive
Streptococcus pneumoniae [11]
  MIC50: 0.015 µg/mL (≈ 0.00854 µM)
  MIC90: 0.03 µg/mL (≈ 0.0171 µM)
Streptococcus pneumoniae [12]
  MIC50: 0.015 µg/mL (≈ 0.00854 µM)
  MIC90: 0.06 µg/mL (≈ 0.0342 µM)
[13]
  MIC50: 0.5 µg/mL (≈ 0.285 µM)
  MIC90: 1 µg/mL (≈ 0.57 µM)
Streptococcus pyogenes [14]
  log10CFU/ml: 0.7
Streptococcus pyogenes [15]
  log10CFU/ml: 2.7
Streptococcus pyogenes [16]
  log10CFU/ml: 2.7
Enterococcus faecalis [17]
  log10CFU/ml: 0.6
Enterococcus faecalis [18]
  log10CFU/ml: 0.5
Enterococcus faecalis [19]
  log10CFU/ml: 0.5
Streptococcus pyogenes [20]
  log10CFU/ml: 0.5
Streptococcus pyogenes [21]
  log10CFU/ml: 0.4
Streptococcus agalactiae [22]
  log10CFU/ml: 1.1
Streptococcus agalactiae [23]
  log10CFU/ml: 1
Streptococcus agalactiae [24]
  log10CFU/ml: 3.6
Streptococcus agalactiae [25]
  log10CFU/ml: 1.6
Streptococcus agalactiae [26]
  log10CFU/ml: 2.3
Streptococcus pneumoniae [27]
  log10CFU/ml: 3.4
Streptococcus pneumoniae [28]
  log10CFU/ml: 1
Streptococcus pneumoniae [29]
  log10CFU/ml: 3.4
[30]
  log10CFU/ml: 3.3
[31]
  log10CFU/ml: 3.3
[32]
  log10CFU/ml: 1.8
[33]
  log10CFU/ml: 1
[34]
  log10CFU/ml: 3.1
Staphylococcus aureus [35]
  log10CFU/ml: 2.9
Staphylococcus aureus [36]
  log10CFU/ml: 1.6
Staphylococcus aureus [37]
  log10CFU/ml: 0.7
Staphylococcus aureus [38]
  log10CFU/ml: 3
Staphylococcus aureus [39]
  log10CFU/ml: 2.8
Staphylococcus aureus [40]
  log10CFU/ml: 1
Staphylococcus aureus [41]
  log10CFU/ml: 3.4
Staphylococcus aureus [42]
  log10CFU/ml: 2.2
Staphylococcus aureus [43]
  log10CFU/ml: 3.4
